Assays:
E. coli CA-1 = assay: MIC assessment (TREK Sensititre); format: cell-based, Escherichia coli; conditions: Escherichia coli, CA1; E. coli CA-1; read-out: MIC
Excerpt: Bacterial strains. Multiple Amp^r strains from feces of broiler chickens without antibiotic treatment were recovered on Columbia blood Agar base (Becton, […] Dickinson and Company, Franklin Lakes, NJ) supplemented with 5% defibrinated sheep blood (Thermo Scientific™, Grand Island, NY).
Minimum inhibition concertation (MIC) assessment. A TREK Sensititre diagnostic system (Thermo scientific, Oakwood Village, OH, USA) was used to assess the AR phenotype and MIC of isolated strains. Protocols to use this system can be found on www.trekds.com. Cation-adjusted Mueller Hinton Broth (Becton, Dickinson and Company, MD, USA) was used as basic medium.

[1] = system: Amp^r (ESBL) Escherichia coli strains M9-1, M9-4, M9-12 and 933-36; assay: MIC of the Amp^r marker strains (previously identified); format: cell-based; conditions: antibiotic not given
fecal microbiota = assay: Chicken study, probiotics and ESBL E. coli followed by oral or injected Amp (FIG. 6); format: in vivo, chickens; conditions: Group 7 and Group 5, with or without ESBL E. coli inoculation
Excerpt: FIGS. 6A and 6B show probiotics and ESBL inoculation on the profiles of poultry fecal microbiota followed by oral or injective antibiotic treatment. FIG. 6A) Phylum level; FIG. 6B) Class level. Group 1: probiotic cocktail treatment throughout, E coli exposure from Day 5 for 4 days and then oral Amp; Group 2: probiotic/peanut butter treatment throughout followed by E coli exposure and then oral Amp; Group 3: inoculated (E coli) then exposed to oral Amp, Group 4: noninoculated then exposed to oral Amp, Group 5: noninoculated then exposed to injective Amp, Group 6: noninoculated then exposed to saline; Group 7: inoculated (E coli) then exposed to injective Amp.
It was recognized that even if antibiotic resistant bacteria may be reduced by probiotic treatment, some of those resistant bacteria seeds might still retain in the microbiota, and could pop up again when exposed to antibiotics. Therefore in another set of the experiment, following probiotic and ESBL E. coli exposure, the chickens were further treated with Amp by oral or muscle injection. […] But Probiotic treated chickens (Group 1 &2) retained more Firmicutes or Cynobacteria than chickens without probiotic treatment (Group 3 with inoculated ESBL E. coli & Group 4 natural flora, with one outlier). […]

SMILES: CC1(C)S[C@@H]2[C@H](NC(=O)[C@H](N)c3ccccc3)C(=O)N2[C@H]1C(=O)O [AMP, ampicillin]
- MIC (E. coli CA-1): > 16 µg/mL
- MIC [1]: > 256 µg/mL
- retention of Firmicutes, injection versus oral (fecal microbiota): significant difference in retaining Firmicutes

From patent US12558386B2, “Methods and compositions to modulate antibiotic resistance and gastrointestinal microbiota” (OHIO STATE INNOVATION FOUNDATION, priority 2018, dated 2026)
